According to patent publication US20050203163A1, “Farnesyl transferase inhibitors in combination with HMG CoA reductase inhibitors for the treatment of cancer” (Pfizer Inc, priority 1997, published 2005):

Tested on: K-Ras 4B
Assay: Prenylation of K-ras 4B in intact cells (immunoblot, densitometric scanning)
Format: cell-based
Settings: 5 μM hydrolysed lovastatin alone (Compound 1 at 0); NIH-3T3 transfectant overexpressing mutant K-Ras 4B; 18 hours at 37° C.

Question: With `CC[C@H](C)C(=O)O[C@H]1C[C@@H](C)C=C2C=C[C@H](C)[C@H](CC[C@@H]3C[C@@H](O)CC(=O)O3)[C@H]21` [Lovastatin, lovastatin] as the molecule, how does the “% Inhibition OF K-Ras 4B Prenylation” value read?
Answer: Its value is 23%.
